We go through 5 compounds from the supplement of paper PMC4862054.

Each structure is given as a SMILES string.

Holding throughout (details): incubation time: 72 h
Assay [1] relates to CAL-148. The assay is described as follows: normalised viability (% of control), CellTiter-Blue; higher = more viable cells (about 100 = DMSO control). The protocol:
(§1)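 DSRT, CellTiter-Blue viability, 72 h incubation. Signal is normalised to DMSO and benzethonium chloride controls. Value is the normalised response at dose 9.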

Assay [2] concerns CAL-51. The assay is described as above. Here is the method:
as §1

Assay [3] relates to CAL-85-1. The description is as above. The protocol:
as §1

The subject of assay [4] is DU-4475. Described as above. Here is the method: as §1
Assay [5] concerns HDQ-P1. The assay is described as above. Here is the method:
as §1

Assay [6] relates to MDA-MB-453. The assay is described as above. Here is the method: as §1
The next assay has as its system BT-474. The experiment in a line: normalised viability (% of control), CellTiter-Blue; higher = more viable cells (100 = DMSO, 0 = benzethonium chloride kill control). Here is the method: (§2)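 DSRT, CellTiter-Blue viability, 72 h incubation. Signal is normalised to DMSO and benzethonium chloride controls. Value is the normalised response at dose 1.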
Another assay concerns BT-549. Described as above. Here is the method:
as §2

In another assay the test system is CAL-120. The description is as above. The protocol: as §2
For assay [7], the system named is CAL-148. Described as above. The protocol: as §2
The subject of assay [8] is CAL-51. Described as above. Here is the method: as §2
Assay [9] relates to CAL-85-1. The assay is described as above. The protocol:
as §2

Assay [10] relates to DU-4475. Described as above. The protocol: as §2
The test system of another assay is HCC1143. The description is as above. Here is the method:
as §2

Another assay deals with HCC1599. The assay is described as above. Here is the method:
as §2

A further assay concerns HCC1937. Described as above. The protocol:
as §2

In assay [11] the test system is HDQ-P1. Described as above. Here is the method: as §2
In a further assay the test system is Hs578T. The description is as above. The protocol:
as §2

The subject of the next assay is MDA-MB-231. Described as above. Here is the method:
as §2

In a further assay the test system is MDA-MB-436. Described as above. The protocol: as §2
In assay [12] the test system is MDA-MB-453. The description is as above. The protocol: as §2
Another assay deals with MDA-MB-468. The description is as above. Here is the method:
as §2

In a further assay the test system is MFM-223. The assay is described as above. Here is the method:
as §2

Another assay concerns SK-BR-3. The description is as above. The protocol:
as §2

In the case of `CN1CCC(COc2cnc(-c3cccc(Cn4nc(-c5cccc(C#N)c5)ccc4=O)c3)nc2)CC1` (10000 nM), the normalised viability was determined as 25.8% in the assay with CAL-148 [1]; 6.25% in the assay on CAL-51 [2]; 6.29% with CAL-85-1 [3]; 2.2% with DU-4475 [4]; 4.94% in the assay with HDQ-P1 [5]; 3.23% with MDA-MB-453 [6].

Turning to `CN(C)C/C=C/C(=O)Nc1cc2c(Nc3ccc(F)c(Cl)c3)ncnc2cc1O[C@H]1CCOC1` [Afatinib] (10000 nM), the normalised viability was 40.7% with CAL-148 [1]; 50.6% in the assay with CAL-51 [2]; 13.6% with CAL-85-1 [3]; 67.8% with DU-4475 [4]; 4.6% with HDQ-P1 [5]; 14.4% with MDA-MB-453 [6].

For the compound `COc1cc(Nc2ncc3c(n2)-c2ccc(Cl)cc2C(c2c(F)cccc2OC)=NC3)ccc1C(=O)O` [MLN8237] (1 nM), the normalised viability in the assay with BT-474 amounted to 109%; in the assay on BT-549, 115%; in the assay with CAL-120 it was 92.1%; in the assay on CAL-148 [7] it was 102%; with CAL-51 [8], 99.7%; in the assay on CAL-85-1 [9] it was 95.7%. Besides, the normalised viability turned out to be 101% in the assay on DU-4475 [10]; 96.3% with HCC1143; 114% in the assay on HCC1599; 101% in the assay with HCC1937; 88.2% with HDQ-P1 [11]; 99.4% with Hs578T. In addition, the normalised viability with MDA-MB-231 was 109%; in the assay on MDA-MB-436, 119%; with MDA-MB-453 [12], 93.8%; in the assay with MDA-MB-468, 105%; in the assay on MFM-223, 88.5%; in the assay on SK-BR-3, 103%.

As for `COc1cc(Nc2ncc3c(n2)-c2ccc(Cl)cc2C(c2c(F)cccc2OC)=NC3)ccc1C(=O)O` [MLN8237] (10000 nM), the normalised viability with CAL-148 [1] was found to be 26.2%; in the assay with CAL-51 [2], 18.8%; in the assay with CAL-85-1 [3], 56.3%; in the assay on DU-4475 [4], 21.9%; in the assay with HDQ-P1 [5], 40.9%; in the assay on MDA-MB-453 [6], 44.8%.

Turning to `CO[C@H]1C[C@@H]2CC[C@@H](C)[C@@](O)(O2)C(=O)C(=O)N2CCCC[C@H]2C(=O)O[C@H]([C@H](C)C[C@@H]2CC[C@@H](OC(=O)C(C)(CO)CO)[C@H](OC)C2)CC(=O)[C@H](C)/C=C(\C)[C@@H](O)[C@@H](OC)C(=O)[C@H](C)C[C@H](C)/C=C/C=C/C=C/1C` [Temsirolimus] (1000 nM), the normalised viability was 36.1% in the assay on CAL-148 [1]; 32.6% with CAL-51 [2]; 57.7% with CAL-85-1 [3]; 49.6% with DU-4475 [4]; 80.6% in the assay with HDQ-P1 [5]; 22.8% with MDA-MB-453 [6].
